Source: US20250295798A1, “LIGAND-DRUG CONJUGATE OF EXATECAN ANALOGUE, AND MEDICAL USE THEREOF” (BeiGene Switzerland GmbH, priority 2022, published 2025)
Structures can show the parent of a compound that is named as a salt.

Assays:
[1] = test system: Calu-6; experiment: Compounds cellular killing in Calu-6; type: cell-based, human; conditions: Calu-6, 6 days, Cell Titer-Glo
Description: (§1) Seeding cells A375 (1E3/well) or Calu-6 (2E3/well) into 96-well plate (Greiner: 655090), 100 ul/well. Incubation at 37° C., 5% CO2, overnight.
(§2) Adding the fresh growth-medium containing the varying concentrations of compounds, 50 ul/well.
(§3) Incubation at 37° C., 5% CO2, 6 days.
(§4) The cell viability detected by Cell Titer-Glo (Promega, G7573). Add 70 µL/well of CellTiter-Glo® Reagent in each well.
(§5) Allow the plates to incubate at room temperature for 10 minutes to stabilize luminescent signal.
(§6) Analyze with Microplate Reader.
(§7) Seeding cells A375 ([…] or Calu-6 (2E3/well) into 96-well plate (Greiner: 655090), 100 ul/well. Incubation at 37° C., […], overnight.

[2] = test system: A375; experiment: Compounds cellular killing in A375; type: cell-based, human; conditions: A375, 6 days, Cell Titer-Glo
Description: as §1, §2, §3, §4, §5, §6, §7

Row | Compound | Emax ([1]; Homo sapiens, Calu-6, […]) [%] | EC50 ([1]; Homo sapiens) [nM] | EC50 ([2]; Homo sapiens, A-375) [nM] | Emax ([2]; Homo sapiens, A-375) [%] | EC50 ([1]; Homo sapiens, Calu-6, […]) [nM] | EC50 ([2]; Homo sapiens, A-375, […]) [nM] | Emax ([2]; Homo sapiens, A-375, […]) [%] | EC50 [2] [nM] | EC50 [1] [nM] | Emax (%) [1] [%] | Emax (%) [2] [%]
1 | CC[C@@]1(O)C(=O)OCc2c1cc1n(c2=O)Cc2c-1nc1cc3c(c4c1c2[C@@H](NC(=O)CO)CC4)OCO3 [Example 2-11, N-((1S,10S)-10-ethyl-10-hydroxy-11,14-dioxo-2,3,10,11,14,16-hexahydro-1H,13H-benzo[de][1,3]dioxolo[4,5-g]pyrano[3′,4′:6,7]indolizino[1,2-b]quinolin-1-yl)-2-hydroxyacetamide] | 99.6 | 3.2 | 10.2 | 99.7 |  |  |  |  |  |  | 
2 | CC[C@@]1(O)C(=O)OCc2c1cc1n(c2=O)Cc2c-1nc1cc(F)c(C)c3c1c2[C@@H](NC(=S)NCCO)CC3 [Example 2-25, 1-((1S,9S)-9-ethyl-5-fluoro-9-hydroxy-4-methyl-10,13-dioxo-2,3,9,10,13,15-hexahydro-1H,12H-benzo[de]pyrano[3′,4′:6,7]indolizino[1,2-b]quinolin-1-yl)-3-(2-hydroxyethyl)thiourea] | 98.2 |  |  |  | 0.1 | 0.9 | 99.9 |  |  |  | 
3 | CC[C@@]1(O)C(=O)OCc2c1cc1n(c2=O)Cc2c-1nc1cc(Cl)c(C)c3c1c2[C@@H](NC(=O)CO)CC3 [Example 2-7, N-((1S,9S)-5-chloro-9-ethyl-9-hydroxy-4-methyl-10,13-dioxo-2,3,9,10,13,15-hexahydro-1H,12H-benzo[de]pyrano[3′,4′:6,7]indolizino[1,2-b]quinolin-1-yl)-2-hydroxyacetamide] | 99.1 |  |  |  | 0.7 | 2 | 99.1 |  |  |  | 
4 | CC[C@@]1(O)C(=O)OCc2c1cc1n(c2=O)Cc2c-1nc1cc(F)c(C)c3c1c2[C@@H](N1CCCC1CO)CC3 (single isomer, unassigned) [Example 2-49] | 99.1 |  |  |  | 0.2 |  | 99.9 | 0.7 |  |  | 
5 | CC[C@@]1(O)C(=O)OCc2c1cc1n(c2=O)Cc2c-1nc1cc(F)c(C)c3c1c2C(CNCCCO)CC3 (stereo partly drawn) [Example 2-55, (9S)-9-ethyl-5-fluoro-9-hydroxy-1-(((3-hydroxypropyl)amino)methyl)-4-methyl-1,2,3,9,12,15-hexahydro-10H,13H-benzo[de]pyrano[3′,4′:6,7]indolizino[1,2-b]quinoline-10,13-dione] | 99.3 |  |  |  | 2.8 | 7.3 | 99.8 |  |  |  | 
6 | CC[C@@]1(O)C(=O)OCc2c1cc1n(c2=O)Cc2c-1nc1cc(F)c(C)c3c1c2C(CCCN)CC3 (stereo partly drawn) [Example 2-42, (9S)-1-(3-aminopropyl)-9-ethyl-5-fluoro-9-hydroxy-4-methyl-1,2,3,9,12,15-hexahydro-10H,13H-benzo[de]pyrano[3′,4′:6,7]indolizino[1,2-b]quinoline-10,13-dione formate] | 99.2 |  |  |  | 2.8 | 20.7 | 99.6 |  |  |  | 
7 | CC[C@@]1(O)C(=O)OCc2c1cc1n(c2=O)Cc2c-1nc1cc(F)c(C)c3c1c2C(N1CCC1CO)CC3 (single isomer, unassigned) [Example 2-57] | 99.3 |  |  |  |  |  | 100 | 1.9 | 0.7 |  | 
8 | CC[C@@]1(O)C(=O)OCc2c1cc1n(c2=O)Cc2c-1nc1cc(F)c(C)c3c1c2[C@@H](n1cc(CCO)nn1)CC3 [Example 2-23, (1S,9S)-9-ethyl-5-fluoro-9-hydroxy-1-(4-(2-hydroxyethyl)-1H-1,2,3-triazol-1-yl)-4-methyl-1,2,3,9,12,15-hexahydro-10H,13H-benzo[de]pyrano[3′,4′:6,7]indolizino[1,2-b]quinoline-10,13-dione] | 98.9 |  |  |  | 1.9 | 3.3 | 99.9 |  |  |  | 
9 | CC[C@@]1(O)C(=O)OCc2c1cc1n(c2=O)Cc2c-1nc1cc(O)cc3c1c2C(NC(C)=O)CC3 (stereo partly drawn) [Example 1-18, N-((9S)-9-ethyl-5,9-dihydroxy-10,13-dioxo-2,3,9,10,13,15-hexahydro-1H,12H-benzo[de]pyrano[3′,4′:6,7]indolizino[1,2-b]quinolin-1-yl)acetamide] | 99.5 |  |  |  | 3.1 | 5.3 | 99.9 |  |  |  | 
10 | CC[C@@]1(O)C(=O)OCc2c1cc1n(c2=O)Cc2c-1nc1cc(F)c(C)c3c1c2[C@@H](N(C)CCO)CC3 [Example 2-5, (1S,9S)-9-ethyl-5-fluoro-9-hydroxy-1-((2-hydroxyethyl)(methyl)amino)-4-methyl-1,2,3,9,12,15-hexahydro-10H,13H-benzo[de]pyrano[3′,4′:6,7]indolizino[1,2-b]quinoline-10,13-dione] | 98.9 | 0.3 | 0.9 | 98.8 |  |  |  |  |  |  | 
11 | CC[C@@]1(O)C(=O)OCc2c1cc1n(c2=O)Cc2c-1nc1cc(OC)cc3c1c2[C@@H](NC(=O)CO)CC3 [Example 2-28, N-((1S,9S)-9-ethyl-9-hydroxy-5-methoxy-10,13-dioxo-2,3,9,10,13,15-hexahydro-1H,12H-benzo[de]pyrano[3′,4′:6,7]indolizino[1,2-b]quinolin-1-yl)-2-hydroxyacetamide] | 98.7 |  |  |  | 7.4 | 13.8 | 98.8 |  |  |  | 
12 | CC[C@@]1(O)C(=O)OCc2c1cc1n(c2=O)Cc2c-1nc1cc(Cl)cc3c1c2[C@H](NC(=O)CO)CC3 [Example 2-13, N-((1R,9S)-5-chloro-9-ethyl-9-hydroxy-10,13-dioxo-2,3,9,10,13,15-hexahydro-1H,12H-benzo[de]pyrano[3′,4′:6,7]indolizino[1,2-b]quinolin-1-yl)-2-hydroxyacetamide] | 98.4 |  |  |  | 5.8 | 7.9 | 99.6 |  |  |  | 
13 | CC[C@@]1(O)C(=O)OCc2c1cc1n(c2=O)Cc2c-1nc1cc(F)c(C)c3c1c2[C@@H](NC(=O)C(C)(F)CO)CC3 (stereo partly drawn) [Example 2-41, N-((1S,9S)-9-ethyl-5-fluoro-9-hydroxy-4-methyl-10,13-dioxo-2,3,9,10,13,15-hexahydro-1H,12H-benzo[de]pyrano[3′,4′:6,7]indolizino[1,2-b]quinolin-1-yl)-2-fluoro-3-hydroxy-2-methylpropanamide] | 98.2 |  |  |  | 0.6 | 1.5 | 99.9 |  |  |  | 
14 | CC[C@@]1(O)C(=O)OCc2c1cc1n(c2=O)Cc2c-1nc1cc(F)c(C)c3c1c2C(OCCO)CC3 (single isomer, unassigned) [Example 2-45] | 99.2 | 0.7 | 1.3 | 100 |  |  |  |  |  |  | 
15 | CC[C@@]1(O)C(=O)OCc2c1cc1n(c2=O)Cc2c-1nc1cc(F)c(C)c3c1c2[C@@H](NC(=O)[C@@H]1C[C@H](O)CN1C)CC3 [Example 2-37, (2S,4S)—N-((1S,9S)-9-ethyl-5-fluoro-9-hydroxy-4-methyl-10,13-dioxo-2,3,9,10,13,15-hexahydro-1H,12H-benzo[de]pyrano[3′,4′:6,7]indolizino[1,2-b]quinolin-1-yl)-4-hydroxy-1-methylpyrrolidine-2-carboxamide] | 98.8 |  |  |  | 1.5 | 3.7 | 99.9 |  |  |  | 
16 | CCc1c2c(nc3ccc(O)cc13)-c1cc3c(c(=O)n1C2)COC(=O)[C@]3(O)CC [Example 1-C, reference compound] |  | 2.6 | 4.3 | 99.5 |  |  |  |  |  |  | 
17 | CC[C@@]1(O)C(=O)OCc2c1cc1n(c2=O)Cc2c-1nc1cc(F)c(C)c3c1c2[C@@H](N1CCCC1CO)CC3 (single isomer, unassigned) [Example 2-50] |  |  |  |  |  |  |  | 0.3 |  | 99.2 | 99.5
18 | CC[C@@]1(O)C(=O)OCc2c1cc1n(c2=O)Cc2c-1nc1cc(F)c(C)c3c1c2[C@@H](NC(=O)C(F)(F)CO)CC3 [Example 2-3, N-((1S,9S)-9-ethyl-5-fluoro-9-hydroxy-4-methyl-10,13-dioxo-2,3,9,10,13,15-hexahydro-1H,12H-benzo[de]pyrano[3′,4′:6,7]indolizino[1,2-b]quinolin-1-yl)-2,2-difluoro-3-hydroxypropanamide] | 98.5 |  |  |  | 0.8 | 2.1 | 100 |  |  |  | 
19 | CC[C@@]1(O)C(=O)OCc2c1cc1n(c2=O)Cc2c-1nc1cc(F)c(C)c3c1c2[C@@H](n1cc(CCCO)nn1)CC3 [Example 2-24, (1S,9S)-9-ethyl-5-fluoro-9-hydroxy-1-(4-(3-hydroxypropyl)-1H-1,2,3-triazol-1-yl)-4-methyl-1,2,3,9,12,15-hexahydro-10H,13H-benzo[de]pyrano[3′,4′:6,7]indolizino[1,2-b]quinoline-10,13-dione] | 99.2 |  |  |  | 3.2 | 7.1 | 99.9 |  |  |  | 
20 | CC[C@@]1(O)C(=O)OCc2c1cc1n(c2=O)Cc2c-1nc1cc(F)c(C)c3c1c2[C@@H](NC(=O)C1CCC1CO)CC3 (stereo partly drawn) [Example 2-2, N-((1S,9S)-9-ethyl-5-fluoro-9-hydroxy-4-methyl-10,13-dioxo-2,3,9,10,13,15-hexahydro-1H,12H-benzo[de]pyrano[3′,4′:6,7]indolizino[1,2-b]quinolin-1-yl)-2-(hydroxymethyl)cyclobutane-1-carboxamide] | 98.7 |  |  |  | 1.3 | 5.2 | 99.9 |  |  |  | 
21 | CC[C@@]1(O)C(=O)OCc2c1cc1n(c2=O)Cc2c-1nc1cc(F)c(C)c3c1c2[C@@H](NC(=O)C1CCCC1O)CC3 (single isomer, unassigned) [Example 2-9] | 98.6 |  |  |  |  |  | 100 | 1.9 | 0.7 |  | 
